Results: patent US9278981B2, “Compounds and compositions for inhibiting the activity of ABL1, ABL2 and BCR-ABL1” (Novartis AG, priority 2012, dated 2016)

What was measured:
ABL1 (64-515) [1] = biological target: T1, ABL1 (64-515) (Homo sapiens (Human), UniProt P00519); experiment: Caliper ABL1 (64-515) assay (microfluidic mobility shift); type: biochemical
ABL1 (64-515) [2] = biological target: T1, ABL1 (64-515); experiment: Radio ABL1 (64-515) assay (radiometric filter-binding); type: biochemical

T1 sequence (P00519 64-515): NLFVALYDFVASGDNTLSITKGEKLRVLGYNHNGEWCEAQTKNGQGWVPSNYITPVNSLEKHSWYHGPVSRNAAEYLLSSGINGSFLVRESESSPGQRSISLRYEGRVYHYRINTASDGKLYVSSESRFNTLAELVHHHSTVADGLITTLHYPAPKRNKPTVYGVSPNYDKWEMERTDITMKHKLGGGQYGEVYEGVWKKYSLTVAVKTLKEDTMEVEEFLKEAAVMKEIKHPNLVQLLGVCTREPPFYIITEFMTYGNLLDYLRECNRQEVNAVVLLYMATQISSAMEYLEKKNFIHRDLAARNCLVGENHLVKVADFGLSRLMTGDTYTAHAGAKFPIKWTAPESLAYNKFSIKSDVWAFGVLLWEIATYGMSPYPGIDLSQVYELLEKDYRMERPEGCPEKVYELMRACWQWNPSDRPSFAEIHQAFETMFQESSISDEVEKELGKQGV

IC50 (ABL1 (64-515) [1]) [nM]	IC50 (ABL1 (64-515) [2]) [nM]	Structure (SMILES)
0.7	0.5	Nc1ncc(-c2cc(C(=O)Nc3ccc(OC(F)(F)Cl)cc3)cnc2N2CC[C@@H](O)C2)cc1F [Example 271]
1.2	2	O=C(Nc1ccc(OC(F)(F)Cl)cc1)c1cnc(N2CC[C@@H](O)C2)c(-c2cc(F)nc(F)c2)c1 [Example 273]
1.1	< 3	O=C(Nc1ccc(OC(F)(F)F)cc1)c1cnc(N2CC[C@@H](O)C2)c(-c2cncc(F)c2)c1 [Example 45, (R)-5′-Fluoro-2-(3-hydroxypyrrolidin-1-yl)-N-(4-(trifluoromethoxy)phenyl)-[3,3′-bipyridine]-5-carboxamide]
1.3	1.7	Nc1ncc(-c2cc(C(=O)Nc3ccc(OC(F)(F)F)cc3)cnc2N2CC[C@@H](O)C2)cc1F [Example 241, (R)-6′-Amino-5′-fluoro-2-(3-hydroxypyrrolidin-1-yl)-N-(4-(trifluoromethoxy)phenyl)-[3,3′-bipyridine]-5-carboxamide]
1.3	1	O=C(Nc1ccc(OC(F)(F)Cl)cc1)c1cnc(N2C[C@H](CO)[C@@H](O)C2)c(-c2cncnc2)c1 (relative stereo) [Example 250, N-(4-(Chlorodifluoromethoxy)phenyl)-6-(trans-3-hydroxy-4-(hydroxymethyl)pyrrolidin-1-yl)-5-(pyrimidin-5-yl)nicotinamide]
0.9	3	Cc1ccc(-c2cc(C(=O)Nc3ccc(OC(F)(F)F)cc3)cnc2N2CC[C@@H](CO)C2)cn1 [Example 77, (R)-2-(3-(hydroxymethyl)pyrrolidin-1-yl)-6′-methyl-N-(4-(trifluoromethoxy)phenyl)-[3,3′-bipyridine]-5-carboxamide]
0.7	< 0.1	CN(C)[C@H]1CN(c2ncc(C(=O)Nc3ccc(OC(F)(F)Cl)cc3)cc2-c2cncnc2)C[C@@H]1O [Example 251]
0.7	6	O=C(Nc1ccc(OC(F)(F)F)cc1)c1cnc(N2C[C@H](CO)[C@@H](O)C2)c(-c2cncc(F)c2)c1 (relative stereo) [Example 92, 5′-Fluoro-2-(trans-3-hydroxy-4-(hydroxymethyl)pyrrolidin-1-yl)-N-(4-(trifluoromethoxy)phenyl)-[3,3′-bipyridine]-5-carboxamide]
0.4	< 3	O=C(Nc1ccc(OC(F)(F)F)cc1)c1cnc(N2CC[C@@H](O)C2)c(-c2cnc(Cl)c(F)c2)c1 [Example 53, (R)-6′-Chloro-5′-fluoro-2-(3-hydroxypyrrolidin-1-yl)-N-(4-(trifluoromethoxy)phenyl)-[3,3′-bipyridine]-5-carboxamide]
0.6	< 3	O=C(Nc1ccc(OC(F)(F)F)cc1)c1cnc(N2CC[C@@H](O)C2)c(-c2cccnc2)c1 [Example 39, (R)-2-(3-Hydroxypyrrolidin-1-yl)-N-(4-(trifluoromethoxy)phenyl)-[3,3′-bipyridine]-5-carboxamide]
4.3	< 3	O=C(Nc1ccc(OC(F)(F)F)c(Cl)c1)c1cnc(N2CC[C@@H](O)C2)c(-c2cncnc2)c1 [Example 204, (R)—N-(3-Chloro-4-(trifluoromethoxy)phenyl)-6-(3-hydroxypyrrolidin-1-yl)-5-(pyrimidin-5-yl)nicotinamide]
0.6	5	O=C(Nc1ccc(OC(F)(F)F)cc1)c1cnc(N2CC(CO)C2)c(-c2cncc(F)c2)c1 [Example 139, 5′-Fluoro-2-(3-(hydroxymethyl)azetidin-1-yl)-N-(4-(trifluoromethoxy)phenyl)-[3,3′-bipyridine]-5-carboxamide]

Second part, the molecule before the results:

Structure (SMILES)	IC50 (ABL1 (64-515) [1]) [nM]	IC50 (ABL1 (64-515) [2]) [nM]
O=C(Nc1ccc(SC(F)(F)F)nc1)c1cnc(N2CC[C@@H](O)C2)c(-c2cncnc2)c1 [Example 279, (R)-6-(3-Hydroxypyrrolidin-1-yl)-5-(pyrimidin-5-yl)-N-(6-((trifluoromethyl)thio)pyridin-3-yl)nicotinamide]	8	3
N[C@H]1CN(c2ccc(C(=O)Nc3ccc(OC(F)(F)Cl)cc3)cc2-c2cncnc2)C[C@@H]1O [Example 245, 4-((3S,4S)-3-Amino-4-hydroxypyrrolidin-1-yl)-N-(4-(chlorodifluoromethoxy)phenyl)-3-(pyrimidin-5-yl)benzamide]	1	5
Cc1ccc(-c2cc(C(=O)Nc3ccc(OC(F)(F)F)cc3)cnc2N2CC(C)(O)C2)cn1 [Example 131, 2-(3-Hydroxy-3-methylazetidin-1-yl)-6′-methyl-N-(4-(trifluoromethoxy)phenyl)-[3,3′-bipyridine]-5-carboxamide]	1.3	8.4
Cc1ncc(-c2cc(C(=O)Nc3ccc(OC(F)(F)Cl)cc3)ccc2N2C[C@H](O)[C@@H](O)C2)cn1 [Example 246, N-(4-(Chlorodifluoromethoxy)phenyl)-4-((3S,4S)-3,4-dihydroxypyrrolidin-1-yl)-3-(2-methylpyrimidin-5-yl)benzamide]	2.2	1
O=C(Nc1ccc(OC(F)(F)F)cc1)c1ccc(N2CCOC2=O)c(-c2cncnc2)c1 [Example 117, 4-(2-Oxooxazolidin-3-yl)-3-(pyrimidin-5-yl)-N-(4-(trifluoromethoxy)phenyl)benzamide]	5.5	0.4
CC(C)(O)C1CN(c2ncc(C(=O)Nc3ccc(OC(F)(F)F)cc3)cc2-c2cccnc2)C1 [Example 143, 2-(3-(2-Hydroxypropan-2-yl)azetidin-1-yl)-N-(4-(trifluoromethoxy)phenyl)-[3,3′-bipyridine]-5-carboxamide]	1.1	4
CCN(CCO)c1ncc(C(=O)Nc2ccc(SC(F)(F)F)cc2)cc1-c1cncnc1 [Example 195, 6-(Ethyl(2-hydroxyethyl)amino)-5-(pyrimidin-5-yl)-N-(4-((trifluoromethyl)thio)phenyl)nicotinamide]	< 0.13	3
N[C@@H]1[C@H]2CN(c3ncc(C(=O)Nc4ccc(OC(F)(F)Cl)cc4)cc3-c3cncnc3)C[C@@H]12 [Example 253]	0.5	2
CN(CCO)c1ncc(C(=O)Nc2ccc(OC(F)(F)F)cc2)cc1-c1cncc(C#N)c1 [Example 155, 5′-Cyano-2-((2-hydroxyethyl)(methyl)amino)-N-(4-(trifluoromethoxy)phenyl)-[3,3′-bipyridine]-5-carboxamide]	5	11
O=C(Nc1ccc(OC(F)(F)F)cc1)c1cnc(N2Cc3cn[nH]c3C2)c(-c2cncnc2)c1 [Example 228]	1.1	1
Cc1ncc(-c2cc(C(=O)Nc3ccc(OC(F)(F)F)cc3)cnc2N2CC(C)(O)C2)cc1F [Example 133, 5′-Fluoro-2-(3-hydroxy-3-methylazetidin-1-yl)-6′-methyl-N-(4-(trifluoromethoxy)phenyl)-[3,3′-bipyridine]-5-carboxamide]	1.4	< 3
CN(C)C1CN(c2ncc(C(=O)Nc3ccc(OC(F)(F)F)cc3)cc2-c2cncc(F)c2)C1 [Example 239, 2-(3-(Dimethylamino)azetidin-1-yl)-5′-fluoro-N-(4-(trifluoromethoxy)phenyl)-[3,3′-bipyridine]-5-carboxamide]	2.6	4
